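Tested at 5 concentrations; 48 h exposure; 96-well plates; endpoints linearly interpolated, else capped at highest concentration. GI50 = concentration required for 50% inhibition of growth.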 Calls of active or inactive are those of the source. Rule as the data show it: active = GI50 up to about 1.1 µM and inactive = higher.
What was measured:
Assay in all cases: inhibition of tumour cell growth, NCI panel, 48 h
[1] = tested on: SK-MEL-2
[2] = tested on: MOLT-4
[3] = tested on: LOX IMVI
[4] = tested on: PC-3
[5] = tested on: SN12C
[6] = tested on: IGROV-1
[7] = tested on: CCRF-CEM
[8] = tested on: K562
[9] = tested on: NCI-H226
[10] = tested on: RXF 393
[11] = tested on: CAKI-1
[12] = tested on: OVCAR-3
[13] = tested on: HCT-116
[14] = tested on: OVCAR-8
[15] = tested on: UACC-62
[16] = tested on: HOP-62
[17] = tested on: SF-268
[18] = tested on: SNB-75
[19] = tested on: MCF7

Measured: GI50

N#C/C(C(=O)Nc1ccccc1)=C(/N)N1CCCC1
inactive: [1] > 100 µM | [2] > 100 µM | [3] > 100 µM | [4] > 100 µM | [5] > 100 µM | [6] > 100 µM | [7] > 100 µM | [8] > 100 µM | [9] > 100 µM | [10] > 100 µM | [11] > 100 µM | [12] > 100 µM | [13] > 100 µM | [14] > 100 µM | [15] > 100 µM | [16] > 100 µM | [17] > 100 µM

O/N=C1\CCc2nonc2\C1=N/Nc1ccccc1
inactive: [1] > 100 µM | [2] > 100 µM | [3] > 100 µM | [4] > 100 µM | [5] > 100 µM | [6] > 100 µM | [7] > 100 µM | [8] > 100 µM | [9] 35.6 µM | [10] > 100 µM | [18] > 100 µM | [11] > 100 µM | [12] > 100 µM | [13] > 100 µM | [14] > 100 µM | [15] > 100 µM | [16] > 100 µM | [17] > 100 µM

COC1OC(Cn2cc([N+](=O)[O-])nc2C)C(O)C(O)C1O (stereo unspecified)
inactive: [1] > 100 µM | [19] > 100 µM | [2] > 100 µM | [4] > 100 µM | [6] > 100 µM | [7] > 100 µM | [8] > 100 µM | [10] > 100 µM | [11] > 100 µM | [12] > 100 µM | [13] > 100 µM | [15] > 100 µM | [16] > 100 µM

CCCCCCCCCCCCOC(=N)N1CCOCC1
inactive: [1] 9.51 µM | [2] 2 µM | [3] 14.5 µM | [5] 4.39 µM | [6] 12.6 µM | [7] 2.26 µM | [8] 1.88 µM | [9] 20.7 µM | [10] 8.99 µM | [18] 13.7 µM | [11] 4.13 µM | [12] 14.9 µM | [13] 8.39 µM | [14] 16.4 µM | [15] 9.77 µM | [16] 17.3 µM | [17] 15 µM

Cc1ccc(N(C(=O)Nc2ccc(F)c(Cl)c2)C2=NCC(C)S2)cc1 (stereo unspecified)
inactive: [1] 61.5 µM | [19] 8.83 µM | [2] 31.6 µM | [3] 30.2 µM | [4] 46.7 µM | [5] 67 µM | [6] > 100 µM | [7] 42.2 µM | [8] 43.9 µM | [18] 17.9 µM | [11] 22.2 µM | [12] 45.3 µM | [13] 38.6 µM | [14] 48.2 µM | [16] > 100 µM | [17] 27.8 µM

Reference: ChEMBL document CHEMBL1201862, “PubChem BioAssay data set” (2004)
